Reference: patent publication US6627659B1, “Methods of decreasing the effects of oxidative stress using N-acetylcysteine” (Zambon Group S.p.A., priority 1999, dated 2003)

Columns and labels:
[1] = system: patients undergoing dialysis; details: oral administration; Atherosclerosis 120 (1996) 241-244; cited from earlier work
[2] = system: myeloperoxidase activity in monocytes; test: AOPP-HSA-induced myeloperoxidase activity in monocytes, luminol chemiluminescence; type: cell-based; details: AOPP-HSA 2 mg/ml, counts/min over 40 minutes, FIG. 1B
Method: (§1) Human serum albumin (HSA) was exposed to HOCl at a molar HSA/HOCl molar ratio of 1/60. The AOPP-HSA preparation was incubated 30 minutes at room temperature and then dialysed overnight against PBS. Isolation of monocytes was performed by an indirect magnetic labelling system which allows the magnetic depletion of non monocytes i.e., T cells, B cells, NK cells, dendritic cells and basophils from a mononuclear cell suspension (obtained by blood sedimentation on a Ficoll gradient) using a cocktail of CD3, CD7, CD19, CD45RA, CD56 and anti-IgE antibodies. Purified monocytes were resuspended at a concentration of 2.5×10^6/ml in phenol-red free Hank's balanced salt solution (HBSS). The capacity of AOPP-HSA to activate monocyte or neutrophil oxygenation activities was measured by chemiluminescence using dimethylbiacridinium (lucigenin) for NADH oxidase activity or luminol for myeloperoxidase activity as chemoluminogenic substrates. One hundred microliters of monocyte suspension (2×10^5/ml) was automatically injected into the luminometer tubes containing 100 μl of HBSS (basal activity), or the tested preparations including: native HSA or AOPP-HSA at 2 mg/ml. Chemiluminescence production was measured in duplicate and luminescence intensity was expressed in counts/min integrated over a 40 minutes period.

[3] = system: NADPH oxidase activity in monocytes; test: AOPP-HSA-induced NADPH oxidase activity in monocytes, lucigenin chemiluminescence; type: cell-based; details: AOPP-HSA 2 mg/ml, counts/min over 40 minutes, FIG. 2B
Method: as §1

[4] = system: NADPH oxidase activity in neutrophils; test: AOPP-HSA-induced NADPH oxidase activity in neutrophils, lucigenin chemiluminescence; type: cell-based; details: neutrophils preincubated with various concentrations of NAC, AOPP-HSA 2 mg/ml, FIG. 2A
Method: (§2) Human serum albumin (HSA) was exposed to HOCl at a molar HSA/HOCl molar ratio of 1/60. The AOPP-HSA preparation was incubated 30 minutes at room temperature and then dialysed overnight against PBS. Neutrophils from the Ficoll gradient pellet were separated from erythrocytes by sedimentation in dextran. Residual erythrocytes were lysed by treating the cell pellet with lysis buffer containing ammonium chloride. Purified neutrophils were resuspended at a concentration of 5×10^6/ml in phenol-red free HBSS at pH 7.4 and preincubated with medium alone or various concentrations of NAC. The capacity of AOPP-HSA to activate monocyte or neutrophil oxygenation activities was measured by chemiluminescence using dimethylbiacridinium (lucigenin) for NADH oxidase activity or luminol for myeloperoxidase activity as chemoluminogenic substrates. One hundred microliters of monocyte suspension (2×10^5/ml) was automatically injected into the luminometer tubes containing 100 μl of HBSS (basal activity), or the tested preparations including: native HSA or AOPP-HSA at 2 mg/ml. Chemiluminescence production was measured in duplicate and luminescence intensity was expressed in counts/min integrated over a 40 minutes period.

[5] = system: myeloperoxidase activity in neutrophils; test: AOPP-HSA-induced myeloperoxidase activity in neutrophils, luminol chemiluminescence; type: cell-based; details: neutrophils preincubated with various concentrations of NAC, AOPP-HSA 2 mg/ml, FIG. 1A
Method: as §2

inhibition of myeloperoxidase activity triggered by AOPP-HSA [2]: dose-dependent inhibition | inhibition of NADPH oxidase activity triggered by AOPP-HSA [3]: dose-dependent inhibition
SMILES: CC(=O)N[C@@H](CS)C(=O)O [NAC, N-acetylcysteine]
efficacy in the treatment of patients undergoing dialysis [1]: without efficacy | inhibition of NADPH oxidase activity triggered by AOPP-HSA [4]: dose-dependent inhibition | inhibition of myeloperoxidase activity triggered by AOPP-HSA [5]: dose-dependent inhibition
